The target in experiment [1] is Bcl-2 (B-cell lymphoma 2) (Homo sapiens, UniProt P10415). Nature of the experiment: intrinsic tryptophan fluorescence quenching. Format: binding.
The target of experiment [2] is B-cell lymphoma 2 (Bcl-2) (UniProt P10415). Briefly: fluorescence polarisation. On the technique in general: In fluorescence polarisation assays a small probe gives low polarisation when free and higher when bound to something large.

This note sets out measurements from paper PMC4673972 (Bioinformatics, 2015).

The Kd is the constant that tells how readily two partners part at equilibrium. A low value points to higher affinity.

Sequence of B-cell lymphoma 2 (Bcl-2) (P10415 whole entry): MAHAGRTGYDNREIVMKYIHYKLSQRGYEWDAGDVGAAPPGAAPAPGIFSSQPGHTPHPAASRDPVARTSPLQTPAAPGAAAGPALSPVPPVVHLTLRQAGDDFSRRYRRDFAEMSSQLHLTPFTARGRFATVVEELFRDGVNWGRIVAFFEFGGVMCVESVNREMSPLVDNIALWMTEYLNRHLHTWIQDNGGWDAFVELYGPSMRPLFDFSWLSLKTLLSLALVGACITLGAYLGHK
Sequence of Bcl-2 (B-cell lymphoma 2) (P10415 whole entry): as above

Compound `CC(C)(COP(=O)(O)OP(=O)(O)OC[C@H]1O[C@@H](n2cnc3c(N)ncnc32)[C@H](O)[C@@H]1OP(=O)(O)O)[C@@H](O)C(=O)NCCC(=O)NCCS` [CoA] yielded a Kd in experiment [1] of 380 ± 80 µM. In experiment [2], fluorescent-labeled Bax-BH3 peptide returned a Kd of 128 nM.
